Experimental data reported in paper PMC8753592, “Long-acting capsid inhibitor protects macaques from repeat SHIV challenges” (Nature, 2021).
Values joined by “and” are separate entries in the source; they are usually repeats but may differ in a detail not shown here. Equal entries are not always repeated. Where two headings read alike, the source gives them in different places.

Experiments:
SHIV-SF162P3 = assay: microbe, parasite or virus in culture; assay type: cell-based, SHIV (in rhesus macaque, Macaca mulatta, PBMCs); conditions: for % Virus Production, replicates n1–n3: experiments 1–7; for % Virus Production, MEAN: per experiment 1–7
Experimental: Freshly isolated PBMCs from three male rhesus macaque (M. mulatta) donors of Indian origin (HumanCells Biosciences) were cultured in RPMI-1640 cell culture medium (Life Technologies) supplemented with 10% heat-inactivated FBS (Hyclone), 2 mM glutamine and 100 U ml^−1 penicillin plus 100 μg ml^−1 streptomycin (complete RPMI). Before their use in the antiviral assays, rhesus PBMCs from three independent donors were pooled and activated at a density of 3 × 10^6 cells per ml for 72 h at 37 °C by the addition of 1 μg ml^–1 phytohemagglutinin (PHA, Sigma-Aldrich) and 50 U ml^−1 recombinant human interleukin-2 (IL-2) (Roche Diagnostics).
PHA/IL-2-stimulated rhesus PBMCs were infected in bulk culture with SHIV-SF162P3 at a concentration of 130 pg of p27 equivalent per million PBMCs. The cells were maintained in suspension by gently rocking the cultures mixed with virus inoculum for 3 h at 37 °C. The cells were then pelleted by centrifugation at 500g for 5 min, washed twice with complete RPMI to remove any unadsorbed virus and seeded into 96-well plates at a cell density of 2 × 10^5 cells per well in 100 μl. […] The cultures were incubated in a 5% CO2 incubator at 37 °C for 7 days. Cell-free supernatants derived from the PBMC cultures were harvested 7 days after infection, the amount of SHIV present was quantified using an SIV p27 antigen-capture ELISA assay (5436, Advanced Bioscience Laboratories) performed according to the manufacturer’s protocol, and the data were acquired using SoftMax Pro 6.3.1 software (Molecular Devices).

HIV-1 isolates = conditions: ref Yant et al, Nat.Med, 2019;[4]; read-out: EC50, human PBMCs, HIV-1 isolates; cited from earlier work
CA monomer = conditions: ref Yant et al, Nat.Med, 2019;[4]; read-out: Binding Affinity (KD), CA monomer; cited from earlier work
[1] = Metabolic stability of [3H]GS-CA1 in primary rhesus hepatocytes; assay type: in vitro ADME
Experimental: Propranolol (1 μM final), a compound known to be efficiently metabolized by hepatocytes by oxidation and conjugation, was used as a positive control. A cell-free control was incubated in parallel as a negative control. Aliquots (100 μl) were removed after 0 h, 1 h, 3 h and 6 h and were then mixed with 200 μl quenching solution, placed on a shaker for 10 min and centrifuged at 3,000g for 60 min. The supernatant was transferred to a new plate, diluted with 100 μl water and placed on a shaker for 10 min. […] PerkinElmer Ultima-Flo was used as the scintillation cocktail, which was mixed with the HPLC effluent at a ratio of 1:1. Sample (100 μl) was injected using a Leap Technologies CTC PAL autosampler. Separation was achieved on a Phenomenex Synergi Fusion-RP 80-Å pore size, 4-μm particle size, 150 × 4.6-mm column maintained at 32 °C. Mobile phase A consisted of 95% water, 5% acetonitrile and 0.1% trifluoroacetic acid (TFA). Mobile phase B consisted of 95% acetonitrile, 5% water and 0.1% TFA. […] The column was allowed to re-equilibrate for 12 min between injections. Quantification was based on the radiochromatographic peak area using Dionex (Thermo Scientific) Chromeleon 6.8 software.

[2] = Plasma GS-CA1 pharmacokinetics in the repeat SHIV challenge study; assay type: in vivo, rhesus macaques of Indian origin
Experimental: For the challenge study, 24 outbred rhesus macaques of Indian origin were assigned to the three study groups with even sex and weight distributions. All animals were housed at Alpha Genesis (Yemassee, SC), and all procedures were conducted in compliance with all relevant local, state and federal regulations and were approved by the Alpha Genesis IACUC. […] The injection sites were monitored daily by veterinary staff for 3 days. Beginning in week 1, animals in all three groups were challenged by the intrarectal route with 1 ml of RPMI containing the specified dilution of a 3.62 × 10^3 TCID50 SHIV-SF162P3 stock. At each respective time point, the challenges were performed on the same day, using the same virus stock and inoculation method across the three groups. Whole blood was collected and processed into plasma and PBMCs as necessary to assess routine haematology, clinical chemistry, viral load and serology as well as for bioanalysis of drug levels. The animals were considered to be protected if they remained SHIV negative by plasma PCR assay and seronegative by enzyme immunoassay throughout the 15-week challenge phase and the 9-week follow-up.
Rhesus plasma samples were stored frozen at −80 °C.

[3] = ref Yant et al, Nat.Med, 2019;[4]; cited from earlier work
[4] = both sexes, Indian origin, rhesus monkey, in vivo, sc, 150 mg/kg, 150 mg/kg single s.c., n=8, mean ± SD
[5] = both sexes, Indian origin, rhesus monkey, in vivo, sc, 300 mg/kg, 300 mg/kg single s.c., n=8, mean ± SD
[6] = both sexes, Indian origin, rhesus monkey, in vivo, sc, 150 mg/kg single s.c., n=8, mean ± SD
[7] = both sexes, Indian origin, rhesus monkey, in vivo, sc, 300 mg/kg single s.c., n=8, mean ± SD

CC(C)(C#Cc1ccc(-c2ccc(Cl)c3c(NS(=O)(=O)C4CC4)nn(CC(F)F)c23)c([C@H](Cc2cc(F)cc(F)c2)NC(=O)Cn2nc(C(F)F)c3c2C(F)(F)[C@@H]2C[C@H]32)n1)S(C)(=O)=O [GS-CA1]
% Virus Production, replicates n1–n3 (SHIV-SF162P3; 0.011 nM): 122% and 104% and 99% and 93% and 127% and 160% and 82% and 121% and 88% and 87% and 68%
% Virus Production, MEAN (SHIV-SF162P3; 0.011 nM): 108% and 126% and 97% and 83% and 121% and 68%
% Virus Production, replicates n1–n3 (SHIV-SF162P3; 0.034 nM): 106% and 78% and 72% and 136% and 114% and 75% and 116% and 105% and 181% and 64% and 89% and 82% and 53% and 93%
% Virus Production, replicates n1–n3 (SHIV-SF162P3; 0.103 nM): 127% and 124% and 79% and 73% and 103% and 118% and 130% and 152% and 105% and 82% and 99% and 121% and 76% and 71%
% Virus Production, MEAN (SHIV-SF162P3; 0.103 nM): 110% and 85% and 133% and 95% and 89% and 99% and 67%
% Virus Production, replicates n1–n3 (SHIV-SF162P3; 0.309 nM): 75% and 74% and 102% and 149% and 120% and 72% and 78% and 94% and 103% and 109% and 66%
% Virus Production, replicates n1–n3 (SHIV-SF162P3; 0.926 nM): 65% and 37% and 36% and 39% and 31% and 20% and 16% and 18% and 23% and 70% and 14% and 22%
% Virus Production, replicates n1–n3 (SHIV-SF162P3; 2.778 nM): 0.408% and 2% and 2.34% and 1.77% and 1.55% and 0.489% and 2.2% and 1.37% and 0.76% and 0.799%
% Virus Production, MEAN (SHIV-SF162P3; 2.778 nM): 1.61% and 1.79% and 1.35% and 1.16% and 2.6% and 1.28% and 0.0528%
% Virus Production, replicates n1–n3 (SHIV-SF162P3; 8.333 nM): 1.76% and 1% and 0.517% and 0.425% and 0.705% and 0.145% and 0.0164% and 0.262% and 1.4% and 0.22% and 0.682% and 0.142%
% Virus Production, MEAN (SHIV-SF162P3; 8.333 nM): 1.08% and 0.425% and 0.559% and 0.348% and 1.87% and 0.078% and 0.398%
% Virus Production, replicates n1–n3 (SHIV-SF162P3; 25.000 nM): -0.0465% and -0.0193% and 0.798% and -0.276% and 0.164% and 0.276% and 1% and 0.434% and -0.106% and 0.12% and 0.292% and 0.064% and 0.0863%
% Virus Production, MEAN (SHIV-SF162P3; 25.000 nM): 0.244% and 0.0545% and 0.436% and 0.159% and -0.387% and 0.675% and 0.293%
Rhesus PBMC paEC95 (SHIV-SF162P3; EC95 × rhesus plasma shift): 30.2 nM and 30.2 ± 2.5 nM and 30 nM
EC50 (SHIV-SF162P3; Simian immunodeficiency virus, PBMC, in Macaca mulatta, 168 h, read-out: EC50, rhesus PBMCs, SHIV-SF162P3, mean of 7 assays, SIV p27 ELISA day 7 post-infection): 0.72 nM
EC50 (SHIV-SF162P3; Simian immunodeficiency virus, PBMC, in Macaca mulatta, 168 h, read-out: SHIV162P3-rhPBMC-EC50, individual experiments, single experiments n1–n7, SIV p27 ELISA day 7): 0.66 nM
Rhesus PBMC EC95 (SHIV-SF162P3; calculated from SHIV EC50 and Hill slope: EC50 × (95/5)^1/n): 1.91 nM and 1.91 ± 0.16 nM and 1.9 nM
EC50 (SHIV-SF162P3; read-out: SHIV162P3-rhPBMC-EC50, individual experiments, single experiments n1–n7, SIV p27 ELISA day 7): 0.71 nM and 0.777 nM and 0.868 nM and 0.535 nM and 0.74 nM (2×) and 0.661 nM and 0.78 nM and 0.714 nM and 0.87 nM and 0.54 nM
EC50 (HIV-1 isolates): 0.13 nM
Kd (CA monomer): 3.9 nM
hepatic extraction [1]: 2.9%
predicted rate of hepatic clearance ([1]; 3H-labelled GS-CA1): 1.2 mL/min/kg
time above the rhesus paEC95 ([2]; 150 mg/kg single s.c.): 8–15 weeks
time six times above the rhesus paEC95 ([2]; 150 mg/kg single s.c.): 3–7 weeks
Cmax ([2]; 150 mg/kg single s.c., n=8, mean ± SD): 3020 ± 1070 nM
Plasma GS-CA1 ([2]; 150 mg/kg single s.c., Week 1, individual animals): 899.55 nM
Plasma GS-CA1 ([2]; 150 mg/kg single s.c., Week 2, individual animals): 1188.65 nM
Plasma GS-CA1 ([2]; 150 mg/kg single s.c., Week 3, individual animals): 497.91 nM
Plasma GS-CA1 ([2]; 150 mg/kg single s.c., Week 4, individual animals): 153.01 nM
Plasma GS-CA1 ([2]; 150 mg/kg single s.c., Week 5, individual animals): 181.45 nM
Plasma GS-CA1 ([2]; 150 mg/kg single s.c., Week 6, individual animals): 238.73 nM
Plasma GS-CA1 ([2]; 150 mg/kg single s.c., Week 7, individual animals): 104 nM
Plasma GS-CA1 ([2]; 150 mg/kg single s.c., Week 8, individual animals): 126.07 nM
Plasma GS-CA1 ([2]; 150 mg/kg single s.c., Week 9, individual animals): 74.21 nM and 60.58 nM
Plasma GS-CA1 ([2]; 150 mg/kg single s.c., Week 10, individual animals): 50.06 nM and 64.16 nM
Plasma GS-CA1 ([2]; 150 mg/kg single s.c., Week 11, individual animals): 28.74 nM and 29.18 nM
Plasma GS-CA1 ([2]; 150 mg/kg single s.c., Week 12, individual animals): 46.73 nM and 64.14 nM
Plasma GS-CA1 ([2]; 150 mg/kg single s.c., Week 13, individual animals): 44.36 nM
Plasma GS-CA1 ([2]; 150 mg/kg single s.c., Week 14, individual animals): 34.07 nM
Plasma GS-CA1 ([2]; 150 mg/kg single s.c., Week 15, individual animals): 17.38 nM
Plasma GS-CA1 ([2]; 150 mg/kg single s.c., Week 16, individual animals): 12.74 nM
Plasma GS-CA1 ([2]; 150 mg/kg single s.c., Week 17, individual animals): 16.54 nM
Plasma GS-CA1 ([2]; 150 mg/kg single s.c., Week 18, individual animals): 11.37 nM
Plasma GS-CA1 ([2]; 150 mg/kg single s.c., Week 19, individual animals): 19.32 nM
Plasma GS-CA1 ([2]; 150 mg/kg single s.c., Week 20, individual animals): 17.47 nM
Plasma GS-CA1 ([2]; 150 mg/kg single s.c., Week 21, individual animals): 4.49 nM
Plasma GS-CA1 ([2]; 150 mg/kg single s.c., Week 22, individual animals): 3.38 nM
Plasma GS-CA1 ([2]; 150 mg/kg single s.c., Week 23, individual animals): 2.14 nM
Plasma GS-CA1 ([2]; 150 mg/kg single s.c., Week 24, individual animals): 4.67 nM
time above the rhesus paEC95 ([2]; 300 mg/kg single s.c.): 14–16 weeks
time six times above the rhesus paEC95 ([2]; 300 mg/kg single s.c.): 5–8 weeks
Cmax ([2]; 300 mg/kg single s.c., n=8, mean ± SD): 5530 ± 1470 nM
concentration at 12 week ([2]; both sexes, Indian origin (outbred), rhesus monkey, in vivo, 300 mg/kg, Plasma GS-CA1, GS-CA1 300mg/kg, Week 12, individual animals): 83.4 nM
concentration at 15 week ([2]; both sexes, Indian origin (outbred), rhesus monkey, in vivo, 300 mg/kg, Plasma GS-CA1, GS-CA1 300mg/kg, Week 15, individual animals): 45.4 nM
concentration at 12 weeks ([2]; both sexes, Indian origin, outbred, rhesus monkey, in vivo, 300 mg/kg, Plasma GS-CA1, 300 mg/kg single s.c., Week 12, individual animals): 83.4 nM
concentration at 15 weeks ([2]; both sexes, Indian origin, outbred, rhesus monkey, in vivo, 300 mg/kg, Plasma GS-CA1, 300 mg/kg single s.c., Week 15, individual animals): 45.4 nM
Cmax [2, 4]: 3000 nM
Tmax [2, 4]: ~1 days
Cmax [2, 5]: 5500 nM
Tmax [2, 5]: ~1.75 days
AUC(0-inf) [2, 6]: 960 ± 435 µM·h
AUC(0-t) [2, 6]: 959 ± 435 µM·h
half-life ([2]; both sexes, Indian origin, rhesus monkey, in vivo, sc, 150 mg/kg single s.c., n=8, mean ± SD, read-out: t1/2 (converted)): 13.2 ± 5.5 days
AUC(0-inf) [2, 7]: 2040 ± 722 µM·h
AUC(0-t) [2, 7]: 2040 ± 722 µM·h
half-life ([2]; both sexes, Indian origin, rhesus monkey, in vivo, sc, 300 mg/kg single s.c., n=8, mean ± SD, read-out: t1/2 (converted)): 12 ± 1.88 days
half-life ([2]; both sexes, Indian origin, rhesus monkey, in vivo, range over the 150 and 300 mg/kg groups, read-out: mean half-life): 12 to 13.2 days
T1/2, human cryopreserved hepatocytes [3]: 5.42 days
